# Reference: ChEMBL document CHEMBL1134158, “Antimycobacterial in vitro activity of cobalt(II) isonicotinoylhydrazone complexes. Part 10” (2001)
# System: Mycobacterium tuberculosis
# Experiment: In vitro anti-mycobacterial activity against Mycobacterium tuberculosis H37Rv
# Assay type: functional
row,SMILES,MIC [µg/mL]
1,CO[C@H]1/C=C/O[C@@]2(C)Oc3c(C)c(O)c4c(O)c(c(/C=N/N5CCN(C)CC5)c(O)c4c3C2=O)NC(=O)/C(C)=C\C=C\[C@H](C)[C@H](O)[C@@H](C)[C@@H](O)[C@@H](C)[C@H](OC(C)=O)[C@@H]1C [RIFAMPIN],0.06
2,NNC(=O)c1ccncc1 [ISONIAZID],0.025
